Results on 21 compounds are retold here after US20090149496A1, “INHIBITORS OF THE TASK-1 AND TASK-3 ION CHANNEL” (SANOFI-AVENTIS DEUTSCHLAND GMBH, priority 2006, published 2009).

One experiment concerns TASK-1. As to conditions: cited from earlier work; for Effect on the TASK-1 channel (in words): therapeutic concentrations, literature; for IC50: stated in the literature, read-out: IC50 value, blocker of TASK-1.
The next experiment addresses T1, TASK1 (mouse) (Mus musculus, UniProt O35111).
T1 construct: expressed in transfected cells; host or cells: Xenopus laevis oocytes injected with in vitro synthesized RNA
Briefly: Activity on the TASK-1 channel in Xenopus oocytes (two-microelectrode voltage clamp), mouse channel. It is filed as cell-based. Conditions: mouse TASK-1 expressed in Xenopus oocytes, voltage jumps to 40 mV, pH 7.4, room temperature; read-out: IC50 (μmol) TASK1 (mouse). How it is done:
(§1) A) Determination of the Activity on the TASK-1 Channel in Xenopus Oocytes
(§2) Mouse or human TASK-1 channels were expressed in Xenopus oocytes. For this purpose, oocytes were first isolated from Xenopus levis and defolliculated. Subsequently, TASK-1-encoding RNA synthesized in vitro was injected into these oocytes. After two days of TASK-1 protein expression, TASK-1 currents were measured on the oocytes with the two-microelectrode voltage clamp technique. In this measurement, the TASK-1 channels were generally activated with voltage jumps lasting 250 ms to 40 mV. The bath was flushed with a solution of the following composition: NaCl 96 mM, KCl 2 mM, CaCl2 1.8 mM, MgCl2 1 mM, HEPES 5 mM (titrated to pH 7.4 with NaOH). These experiments were performed at room temperature. For data acquisition and analysis, the following were used: Geneclamp amplifier (Axon Instruments, Foster City, USA) and MacLab D/A converter and software (ADinstruments, Castle Hill, Australia). The inventive substances were tested by adding them to the bath solution in different concentrations. The effects of the substances were calculated as the percentage inhibition of the TASK-1 control current which was obtained when no substance was added to the solution. The data was subsequently fitted to the Hill equation in order to determine the half-maximum inhibitory concentrations (IC50 values) for the particular substances.

In experiment [1] the target is T2, TASK1 (human) (Homo sapiens, UniProt O14649). Briefly: Activity on the TASK-1 channel with the FLIPR technique on CHO cells. Set-up: expressed in transfected cells; host or cells: CHO cells. The class given is cell-based. As to conditions: inhibition of human TASK-1 current, 10 μmol/l. The source says:
B) Determination of the Activity on the TASK-1 Channel with the FLIPR Technique

In another experiment the test system is respiration. Kind of experiment: Respiratory minute volume in narcotized rats. The class given is in vivo, rat. The procedure:
(§3) E) Investigation of the Effect on the Electromyographic Activity of the Genioglossus Muscle and the Respiratory Minute Volume in Rats
(§4) The compound of example 1 (R-enantiomer) and of example 2 was investigated for electromyographic activity of the genioglossus muscle and for respiration-stimulating effect on male urethane-chloralose-narcotized, vagotomized rats with a weight of from 250 to 300 g. For this purpose, the genioglossus EMG activity was measured by means of EMG electrodes. The respiration-stimulating effect was investigated by measuring the respiratory minute volume by means of a tracheal cannula. For the investigations, the rats were administered intravenously successively with 1, 3 and 10 mg/kg of the compound of example 1 (R-enantiomer) and of example 2, with glycofurol (50%) as the vehicle, at 15 minute intervals. CO2 was used as the positive control for the stimulation of the genioglossus activity and of the respiratory minute volume.

The test system of another experiment is genioglossus muscle. Kind of experiment: Electromyographic activity of the genioglossus muscle in narcotized rats. It is filed as in vivo, rat. How it is done: as §3, §4
In experiment [2] the target is T2, TASK1 (human). Kind of experiment: Activity on the TASK-1 channel in Xenopus oocytes (two-microelectrode voltage clamp), human channel. The class given is cell-based. Also noted: expressed in transfected cells; host or cells: Xenopus laevis oocytes injected with in vitro synthesized RNA. Conditions: human TASK-1 expressed in Xenopus oocytes, voltage jumps to 40 mV, pH 7.4, room temperature; read-out: IC50 (μmol) TASK1 (human). The procedure:
as §1, §2

Values joined by “and” are separate entries in the source; they are usually repeats but may differ in a detail not shown here. Equal entries are not always repeated. Structures can show the parent of a compound that is named as a salt.

T1 sequence (O35111 whole entry): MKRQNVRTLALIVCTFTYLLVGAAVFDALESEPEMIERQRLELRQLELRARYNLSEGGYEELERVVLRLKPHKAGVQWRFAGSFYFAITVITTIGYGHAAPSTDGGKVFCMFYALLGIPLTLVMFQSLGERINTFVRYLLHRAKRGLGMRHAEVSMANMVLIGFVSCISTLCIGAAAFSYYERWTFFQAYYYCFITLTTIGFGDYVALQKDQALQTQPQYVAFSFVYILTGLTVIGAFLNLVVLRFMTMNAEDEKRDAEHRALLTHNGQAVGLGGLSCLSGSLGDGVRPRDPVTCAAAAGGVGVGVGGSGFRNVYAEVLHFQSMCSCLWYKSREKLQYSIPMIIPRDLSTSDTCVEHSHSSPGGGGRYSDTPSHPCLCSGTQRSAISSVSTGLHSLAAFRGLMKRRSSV
T2 sequence (O14649 whole entry): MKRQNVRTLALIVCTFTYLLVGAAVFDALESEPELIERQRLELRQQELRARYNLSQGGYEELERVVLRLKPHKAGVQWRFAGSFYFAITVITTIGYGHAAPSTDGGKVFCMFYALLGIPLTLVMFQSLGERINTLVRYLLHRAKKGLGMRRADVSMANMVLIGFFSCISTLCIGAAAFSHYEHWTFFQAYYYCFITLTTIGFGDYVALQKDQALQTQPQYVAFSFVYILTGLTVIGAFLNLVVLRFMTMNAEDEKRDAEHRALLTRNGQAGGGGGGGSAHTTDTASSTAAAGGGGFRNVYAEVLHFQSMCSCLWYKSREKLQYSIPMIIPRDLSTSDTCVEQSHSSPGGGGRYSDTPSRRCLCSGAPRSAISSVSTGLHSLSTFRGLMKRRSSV

Consider `FC(F)OC(Cl)C(F)(F)F` (stereo not shown) [isoflurane], for which, in the experiment on TASK-1, the “Effect on the TASK-1 channel (in words)” value is reported as “activation”.

A word on the IC50: it is the concentration at which inhibition is half-maximal. The term inhibition denotes the share of the control response that was lost under treatment. Higher therefore signals strong suppression. `COc1ccc(CC(=O)NCc2ccccc2-c2ccsc2C(=O)NCc2ccc(F)cc2F)cc1` [Example 8, N-(2,4-Difluorobenzyl)-3-(2-{[2-(4-methoxyphenyl)acetyl-amino]methyl}phenyl)thiophene-2-carboxamide]: on TASK1 (mouse), the IC50 stood at 550 nM. The inhibition at 10 µM at TASK1 (human) [1] was determined as 77%.

For `CCCCS(=O)(=O)Nc1ccccc1C(=O)N[C@@H](CC)c1ccc(OC)nc1` [Example 1 (S-enantiomer), 2-(butyl-1-sulfonylamino)-N-[1(S)-(6-methoxypyridin-3-yl)propyl]benzamide], the IC50 at TASK1 (mouse) amounted to 800 nM. Also, testing at 10 µM against TASK1 (human) [1] gave an inhibition of 58%.

As to `O=C=O` [CO2, reference compound], the “Respiratory minute volume (mean)” value with respiration (5% CO2 positive control) was 237 mL/min and 209 mL/min. For the same compound, the “EMG activity of the genioglossus muscle (mean)” value in the experiment on genioglossus muscle (5% CO2 positive control) was 5.13 arbitrary units and 3.15 arbitrary units.

For `C[C@H](OC(=O)NCc1ccccc1-c1cccnc1C(=O)NCCc1ccccn1)c1ccccc1` [Example 12, (S)-1-Phenylethyl {2-[2-(2-pyridin-2-ylethylcarbamoyl)pyridin-3-yl]benzyl}carbamate], the IC50 on TASK1 (mouse) is 3360 nM. In addition, on TASK1 (human) [1], 10 µM produced 73% inhibition.

Take `COc1ccc(CCC(=O)NCc2ccccc2-c2cc(C(=O)NCCC(C)C)ccc2C)cc1` [Example 16, N-(3-Methylbutyl)-2′-{[3-(4-methoxyphenyl)propionylamino]methyl}-6-methylbiphenyl-3-carboxamide]: on TASK1 (mouse), the IC50 stood at 2770 nM.

In the case of `CN(CCc1ccccn1)C(=O)c1ccccc1-c1ccccc1CNC(=O)OCc1ccccc1` [Example 7, Benzyl {2′-[methyl-(2-pyridin-2-ylethyl)carbamoyl]biphenyl-2-ylmethyl}carbamate], at TASK1 (mouse), the IC50 came to 1060 nM. On TASK1 (human) [1], this compound had an inhibition at 10 µM of 57%.

For the compound `CC(C)CCNC(=O)c1cccc(-c2ccncc2CNC(=O)OCc2ccccc2)c1` [Example 15, Benzyl {4-[3-(3-methylbutylcarbamoyl)phenyl]pyridin-3-yl-methyl}carbamate], on TASK1 (mouse), the IC50 was 1830 nM. This compound also came in with an inhibition at 10 µM on TASK1 (human) [1] of 70%.

As to `COc1ccc(CC(=O)NCc2ccccc2-c2ccccc2C(=O)NCCc2cccnc2)cc1` [Example 2, N-(2-pyridin-3-ylethyl)-2′-{[2-(4-methoxyphenyl)acetylamino]-methyl}biphenyl-2-carboxamide], the “Respiratory minute volume (mean)” value with respiration (1 mg/kg intravenously) was determined as 253 mL/min; in the experiment on respiration (3 mg/kg intravenously) it was 279 mL/min; with respiration (10 mg/kg intravenously) it was 291 mL/min. Besides, the “Effect on the respiratory minute volume (in words)” value in the experiment on respiration (summary of tables 3 and 5) is on record as “stimulate”. The “EMG activity of the genioglossus muscle (mean)” value in the experiment with genioglossus muscle (1 mg/kg intravenously) came out at 3.15 arbitrary units; in the experiment with genioglossus muscle (3 mg/kg intravenously), 3.55 arbitrary units; in the experiment on genioglossus muscle (10 mg/kg intravenously), 3.82 arbitrary units. Moreover, the “Effect on the electromyographic activity of the genioglossus muscle (in words)” value in the experiment with genioglossus muscle (summary of tables 2 and 4) is listed as “stimulate”. Also, the IC50 at TASK1 (mouse) came to 430 nM; at TASK1 (human) [2], 570 nM. Besides, the inhibition at 10 µM on TASK1 (human) [1] was 77%.

Take `CCCCC/C=C\C/C=C\C/C=C\C/C=C\CCCC(=O)NCCO` [anandamide]: the IC50 in the experiment with TASK-1 is 700 nM.

As for `CCN1CC(CCN2CCOCC2)C(c2ccccc2)(c2ccccc2)C1=O` (stereo not shown) [doxapram], the IC50 in the experiment with TASK-1 was 400 nM.

As to `C[C@H](OC(=O)NCc1ccccc1-c1ccccc1C(=O)NC[C@@H](C)O)c1ccccc1` [Example 5, N-(2-(R)-hydroxypropyl)-2′-(α-(S)-methylbenzyloxycarbonyl-aminomethyl)biphenyl-2-carboxamide], on TASK1 (mouse), the IC50 was determined as 2080 nM. The compound also gave an inhibition at 10 µM against TASK1 (human) [1] of 88%.

Turning to `COc1ccc(CC(=O)NCc2ccccc2-c2sccc2C(=O)NCc2ccc(F)cc2F)cc1` [Example 11, N-(2,4-Difluorobenzyl)-2-(2-{[2-(4-methoxyphenyl)acetyl-amino]methyl}phenyl)thiophene-3-carboxamide], the IC50 on TASK1 (mouse) came out at 350 nM. At TASK1 (human) [1], this compound returned an inhibition at 10 µM of 88%.

As for `COc1ccc(CC(=O)NCc2ccccc2-c2cc(Cl)ccc2C(=O)NCc2ccc(F)cc2F)cc1` [Example 6, N-(2,4-Difluorobenzyl)-5-chloro-2′-{[2-(4-methoxyphenyl)acetyl-amino]methyl}biphenyl-2-carboxamide], at TASK1 (mouse), the IC50 was 1150 nM. At 10 µM the inhibition at TASK1 (human) [1] was 68%.

In the case of `O=C(NCc1ccccc1-c1ncccc1C(=O)NCc1ccc(F)cc1F)OCc1ccccc1` [Example 14, Benzyl {2-[3-(2,4-Difluorobenzylcarbamoyl)pyridin-2-yl]benzyl}carbamate], at TASK1 (mouse), the IC50 worked out at 2900 nM. In addition, at TASK1 (human) [1], the inhibition at 10 µM is 50%.

As for `FC(F)(F)C(Cl)Br` (stereo not shown) [halothane], the “Effect on the TASK-1 channel (in words)” value in the experiment on TASK-1 was “activation”.

In the case of `CCCCC/C=C\C/C=C\C/C=C\C/C=C\CCCC(=O)N[C@H](C)CO` [methanandamide], the IC50 with TASK-1 is 700 nM.

Take `COc1ccc(CC(=O)NCc2ccccc2-c2ccc(C(=O)NCc3ccc(F)cc3F)o2)cc1` [Example 9, N-(2,4-Difluorobenzyl)-5-(2-{[2-(4-methoxyphenyl)acetyl-amino]methyl}phenyl)furan-2-carboxamide]: the IC50 at TASK1 (mouse) was 2370 nM. The compound further showed an inhibition at 10 µM against TASK1 (human) [1] of 60%.

For `COc1ccc(CC(=O)NCc2ccccc2-c2occc2C(=O)NCCC(C)C)cc1` [Example 10, N-(3-methylbutyl)-2-(2-{[2-(4-methoxyphenyl)acetyl-amino]methyl}phenyl)furan-3-carboxamide], the IC50 on TASK1 (mouse) was 1190 nM. The inhibition at 10 µM against TASK1 (human) [1] worked out at 61%.

In the case of `CC[C@H](NC(=O)c1cc(OC)ccc1NS(=O)(=O)c1ccc(OC)cc1)c1ccccc1` [Example 4, (S)-5-Methoxy-2-(4-methoxybenzenesulfonylamino)-N-(1-phenylpropyl)benzamide], at TASK1 (mouse), the IC50 came to 650 nM.

Compound `CC[C@H](NC(=O)c1cc(F)ccc1NS(=O)(=O)c1cccc2cccnc12)c1ccccc1` [Example 3, (S)-5-Fluoro-2-(quinoline-8-sulfonylamino)-N-(1-phenylpropyl)benzamide sodium salt] returned an inhibition at 10 µM on TASK1 (human) [1] of 82%.
